US4857508A, “Novel platelet-aggregation inhibitor peptide derivatives” (Monsanto Company, priority 1987, dated 1989)
Like-named read-outs stand apart in the source and are kept apart here. Non-standard residues stand in square brackets, D forms with d. Residues, ends and D or L forms follow the SMILES beside them.

Key:
washed human platelets = washed human platelets (Homo sapiens, UniProt P05106+P08514); assay: Inhibition of thrombin-induced platelet aggregation in washed human platelets; format: cell-based; details: for inhibition at 100 µM: peptide 10^-4 M; for IC50: linear regression of dose response curve
Sequence of washed human platelets (P08514 32-1039): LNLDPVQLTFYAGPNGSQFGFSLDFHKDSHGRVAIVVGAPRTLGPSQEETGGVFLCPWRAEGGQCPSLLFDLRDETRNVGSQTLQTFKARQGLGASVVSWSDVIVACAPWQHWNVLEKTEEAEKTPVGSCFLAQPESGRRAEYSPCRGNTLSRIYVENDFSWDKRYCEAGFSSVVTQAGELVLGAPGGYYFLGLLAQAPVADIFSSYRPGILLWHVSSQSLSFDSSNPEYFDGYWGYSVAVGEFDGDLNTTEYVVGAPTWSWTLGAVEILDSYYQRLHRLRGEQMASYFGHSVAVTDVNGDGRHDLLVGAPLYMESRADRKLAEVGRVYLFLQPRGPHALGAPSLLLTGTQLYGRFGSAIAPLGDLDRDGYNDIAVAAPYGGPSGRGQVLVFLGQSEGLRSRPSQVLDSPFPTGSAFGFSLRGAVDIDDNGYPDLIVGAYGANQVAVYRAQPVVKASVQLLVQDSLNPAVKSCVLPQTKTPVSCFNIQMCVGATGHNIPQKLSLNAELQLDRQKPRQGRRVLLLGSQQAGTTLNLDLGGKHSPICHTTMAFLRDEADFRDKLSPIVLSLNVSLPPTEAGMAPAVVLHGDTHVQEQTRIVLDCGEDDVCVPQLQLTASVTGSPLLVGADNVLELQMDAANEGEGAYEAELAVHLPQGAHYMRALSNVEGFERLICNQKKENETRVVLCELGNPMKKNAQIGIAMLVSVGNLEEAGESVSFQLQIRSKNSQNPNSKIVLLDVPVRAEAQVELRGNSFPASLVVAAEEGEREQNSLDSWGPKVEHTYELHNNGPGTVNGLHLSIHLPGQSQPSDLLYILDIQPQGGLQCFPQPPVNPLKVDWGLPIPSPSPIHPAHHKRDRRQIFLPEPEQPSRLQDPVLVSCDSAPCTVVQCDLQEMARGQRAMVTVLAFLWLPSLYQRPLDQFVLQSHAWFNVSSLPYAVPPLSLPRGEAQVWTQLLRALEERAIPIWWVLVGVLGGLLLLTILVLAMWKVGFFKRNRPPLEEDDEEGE
Sequence of washed human platelets (P05106 27-788): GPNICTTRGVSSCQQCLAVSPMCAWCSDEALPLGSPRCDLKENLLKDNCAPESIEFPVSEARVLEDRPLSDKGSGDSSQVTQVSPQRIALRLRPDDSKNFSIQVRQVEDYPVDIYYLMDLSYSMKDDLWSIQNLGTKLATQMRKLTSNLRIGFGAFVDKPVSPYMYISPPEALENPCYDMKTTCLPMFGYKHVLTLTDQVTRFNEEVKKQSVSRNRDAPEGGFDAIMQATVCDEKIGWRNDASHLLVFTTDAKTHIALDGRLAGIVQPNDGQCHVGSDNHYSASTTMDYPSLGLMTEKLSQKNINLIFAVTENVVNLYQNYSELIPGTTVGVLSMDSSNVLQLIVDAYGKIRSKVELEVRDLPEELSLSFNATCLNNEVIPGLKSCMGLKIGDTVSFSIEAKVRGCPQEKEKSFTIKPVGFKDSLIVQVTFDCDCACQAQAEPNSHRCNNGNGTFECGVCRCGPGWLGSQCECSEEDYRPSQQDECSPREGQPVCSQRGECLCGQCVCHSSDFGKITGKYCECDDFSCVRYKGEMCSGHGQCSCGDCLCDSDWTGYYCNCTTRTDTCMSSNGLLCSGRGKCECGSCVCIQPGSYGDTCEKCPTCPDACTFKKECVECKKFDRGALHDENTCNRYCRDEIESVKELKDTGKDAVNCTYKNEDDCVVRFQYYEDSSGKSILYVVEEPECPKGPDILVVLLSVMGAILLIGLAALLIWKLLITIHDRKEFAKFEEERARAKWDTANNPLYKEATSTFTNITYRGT
Experimental: In one assay, the peptides are tested for their inhibition of thrombin-induced platelet aggregation in washed human platelets. The % inhibition is determined for the test peptide by comparing the extent of platelet aggregation in the presence and absence of the peptide.
Platelet Preparation: 60 ml of whole blood is freshley drawn and anticoagulated with 1/10th volume of CCD (100 mM Na Citrate and 136 mM glucose, pH 6.5 with HCl) at room temperature (RT). The blood is divided into 2 disposable 60 ml plastic centrifuge tubes and centrifuged for 3 minutes at 1000×g, allowing the centrifuge to coast to a stop (no brake). The platelet rich plasma (PRP) is withdrawn, being careful that no white cells are taken and is placed in a 60 ml centrifuge tube. The tube is immediately placed on ice for 15 minutes. After the 15 minutes at 0° C., 1/2 volume of ice cold CCD is added (i.e. 15 ml CCD/30 ml of PRP). The tube is mixed and the contents are divided equally into two centrifuge tubes. These are then centrifuged at 0° C. for 10 minutes at 900×g (no brake). The supernatant is carefully poured off. The platelet pellet is gently resuspended in 1/2 the original volume of PRP in a 0° C. modified Tangen-Hepes-BSA buffer, pH 7.4, consisting of 145 mM NaCl, 5 mM KCl, 0.05 mM CaCl2, 0.1 mM MgCl2, 11 mM glucose, 15 mM Hepes (N-2-hydroxyethylpiperazine-N'-2-ethanesulfonic acid), 1 mg/ml bovine serum albumin, (pH adjusted with NaOH). The resuspended pellets are combined into 1 centrifuge tube and incubated undisturbed at 37° C. for 30 minutes. After the incubation, the platelet suspension is removed and an aliquot is quickly counted in a hemocytometer or a Coulter® Counter (Coulter Electronics, Hialeah, Fla.). The platelet count is adjusted to 3×10^8 cells/ml with the Tangen-Hepes-BSA buffer.
Compound Testing: Aggregation studies are accomplished using a Payton aggregometer (Payton Scientific, Inc., Buffalo, N.Y.). […] All compounds are diluted to a working concentration of 10^-3 M with double distilled water. The reaction mixture consisted of 400 μl of 3×10^8 /ml washed platelets, 50 μl of buffer (control) or test compound at 10^-3 M with a final concentration of 10^-4 M. Platelets, test compound or buffer are placed in cuvettes in the aggregometer for a 1 minute preincubation before adding thrombin. 50 μl of 0.5 U/ml thrombin is added to cuvettes and the aggregation is monitored for 1 minute, which is the time for maximal aggregation of the platelets. All compounds are run in duplicate. The entire test is run within 3 hours, since this is the maximal viability of the platlets.

[1] = target: human platelets in platelet-rich plasma (Homo sapiens, UniProt P05106+P08514); assay: In-vitro human platelet aggregation in platelet-rich plasma (PRP), ADP-induced; format: cell-based; details: for IC50: linear regression of dose response curve
Sequence of human platelets in platelet-rich plasma (P08514 32-1039): as the sequence (P08514 32-1039) above
Sequence of human platelets in platelet-rich plasma (P05106 27-788): as the sequence (P05106 27-788) above
Experimental: In another assay, platelet aggregation is examined in platelet-rich plasma which also is rich in fibrinogen and other plasma proteins.
The syringe is rotated carefully as blood is being drawn to mix the citrate. Platelet-rich plasma (PRP) is prepared by centrifugation at 100×g for 10 minutes at room temperature, allowing the centrifuge to coast to a stop without braking. The PRP is removed from the blood with a plastic pipette and placed in a plastic, capped, 50 ml Corning conical sterile centrifuge tube. The tube is capped and placed at room temperature. Platelet poor plasma (PPP) is prepared by centrifuging the remaining blood at 2000×g for 15 minutes at room temperature allowing the centrifuge to coast to a stop without braking. The PRP is adjusted with PPP to a count of 2-3×10^8 platelets per ml. 400 μl of the PRP preparation and 50 μl of the compound to be tested or saline were preincubated for 1 minute at 37° C. in a Payton aggregometer (Payton Scientific, Inc., Buffalo, NY). 50 μl of adenosine 5'diphosphate (ADP) (50 μM) is added to the cuvettes and the aggregation is monitored for 1 minute. All compounds are tested in duplicate. The entire procedure is run within 3 hours, since this is the maximal viability of the platelets. The saline instead of compound is used to determine the maximal aggregation.

[2] = tested on: collagen induced thrombocytopenia (platelet aggregation); assay: In vivo rat thrombocytopenia (collagen induced); details: for inhibition in the in vivo thrombocytopenia assay: dose not printed there; for % Inhibition at 1 mg/kg: collagen 60 μg/kg
Experimental: In yet another test, the effect of the peptide on collagen induced thrombocytopenia (platelet aggregation) is measured in vivo in the art. Again, the % inhibition is determined for the test peptide and compared against a saline or ethanol vehicle in the absence of peptide.
Male rats (Charles River, CRL:CD(SD), 400-450 g) were used. The rats were anesthetized with Na pentabarbital (65 mg/kg, Vet Labs, Limited, Inc., Lenexa, KA). Two incisions were made to expose both jugular veins. Using an infusion pump (Harvard Apparatus, South Natick, Mass.) and a 5 cc syringe with a 19 g. butterfly, the test compound or vehicle was infused into the left jugular vein at a rate of 0.39 ml/min for 3 min. After 2 min of compound/vehicle infusion, collagen (60 μg/kg) (Helena Laboratories,Beaumont, TX) was injected with a 1 ml syringe into the right jugular vein. The body cavity was opened and the vena cava was exposed for blood sampling. One min after the collagen injection, compound infusion was stopped and blood was sampled from the vena cava (within 30 sec) with a 3 cc syringe containing […] of 4.5% EDTA/Tris (0.1M) (pH 7.35) plus 150 μM indomethacin. Platelet rich plasma (PRP) was prepared by centrifuging the blood at 126× g for 10 min. Five μl of PRP was counted in 20 ml of Isoton® III in a Coulter Counter. Percent inhibition of collagen induced aggregation was calculated by comparison of the number of platelets counted in treated animals with numbers for animals receiving no collagen and with counts from animals receiving vehicle and collagen. Estimation of potency was based on inhibition of collagen-induced thrombocytopenia.
Four animals were tested with each compound to give the data shown.

Row | Compound | inhibition at 100 µM (washed human platelets) | inhibition at 100 µM ([1]; peptide 10^-4 M) | IC50 (washed human platelets) | IC50 ([1]; read-out: IC50) | also measured
1 | N=C(N)NCCC[C@H](N)C(=O)NCC(=O)N[C@@H](CC(=O)O)C(=O)N[C@@H](CO)C(=O)O [RGDS, Arg-Gly-Asp-Ser, reference compound] | 71% | 25% |  |  | 
2 | CC(=O)N[C@@H](CCCNC(=N)N)C(=O)NCC(=O)N[C@@H](CC(=O)O)C(=O)N[C@@H](Cc1ccc(O)cc1)C(N)=O [Ac--RGDY--NH2] (Ac-RGDY-NH2) | 68% | 48% |  |  | inhibition in the in vivo thrombocytopenia assay [2]: 85%; % Inhibition at 1 mg/kg ([2]; rat, i.v. infusion): 85%
3 | COc1ccc(C[C@H](NC(=O)[C@H](CC(=O)O)NC(=O)CNC(=O)CCCCNC(=N)N)C(N)=O)cc1 [des-NH2 --RGD(O--methyl-Tyr)--NH2, des-amino-Arg-Gly-Asp-(O-methyltyrosine)-amide] | 90% | 100% | 10 µM | 20 µM | 
4 | COc1cc(C)c(CC(NC(=O)[C@H](CC(=O)O)NC(=O)CNC(=O)[C@@H](N)CCCNC(=N)N)C(N)=O)c(C)c1 (stereo partly drawn) [RGD(2,6-dimethyl-O--methyl-Tyr)--NH2, Arg-Gly-Asp-(2,6-dimethyl-O-methyltyrosine)amide] | 78% | 53% | 20 µM |  | IC50 [1]: 90 µM
5 | COc1ccc(C[C@H](NC(=O)[C@H](CC(=O)O)NC(=O)CNC(=O)[C@@H](CCCNC(=N)N)NC(C)=O)C(N)=O)cc1 [Ac--(D-Arg)GD(O--methyl-Tyr)--NH2, acetyl-(D-Arg)-Gly-Asp-(O-methyltyrosine)-amide] (Ac-[dR]GDY(Me)-NH2) |  | 71% |  |  | 
6 | NC(=O)[C@H](Cc1ccccc1)NC(=O)[C@H](CC(=O)O)NC(=O)CNC(=O)[C@@H](N)CCCN=C(N)N [RGDF--NH2, reference compound] (H-RGDF-NH2) |  |  | 10 µM | 20 µM | 
7 | CC(=O)N[C@@H](CCCN=C(N)N)C(=O)NCC(=O)N[C@@H](CC(=O)O)C(=O)N[C@@H](Cc1ccc(O)cc1)C(N)=O [Ac--RGDY--NH2] (Ac-RGDY-NH2) |  |  | 50 µM |  | 
8 | Arg-Gly-Asp-(p-phenyl-phenylalanine)-amide [RGD(p-phenyl-Phe)--NH2] |  |  |  |  | % Inhibition at 10^-4 M ([1]; peptide 10^-4 M): 100%
9 | CCOc1ccc(C[C@H](NC(=O)[C@H](CC(=O)O)NC(=O)CNC(=O)[C@@H](N)CCCNC(=N)N)C(N)=O)cc1 [RGD(O--ethyl-Tyr)--NH2, Arg-Gly-Asp-(O-ethyltyrosine)-amide] (H-RGDY(Et)-NH2) | 54% |  |  |  | 
10 | N=C(N)NCCC[C@H](N)C(=O)NCC(=O)N[C@@H](CC(=O)O)C(=O)N[C@@H](Cc1ccc(O)cc1)C(N)=O [RGDY--NH2, reference compound] (H-RGDY-NH2) | 45% |  |  |  | inhibition in the in vivo thrombocytopenia assay [2]: 19%; % Inhibition at 1 mg/kg ([2]; rat, i.v. infusion): 19 ± 12%; Maximum Inhibition % ([2]; rat, i.v. infusion, collagen induced thrombocytopenia): 20%
11 | COc1ccc(C[C@H](NC(=O)[C@H](CC(=O)O)NC(=O)CNC(=O)CCCCCNC(=N)N)C(N)=O)cc1 [des-amino-(homoarginine)-Gly-Asp-(O-methyltyrosine)-amide] | 82% | 100% | 10 µM | 20 µM | 
12 | COc1ccc(C[C@H](NC(=O)[C@H](CC(=O)O)NC(=O)CNC(=O)[C@H](CCCNC(=N)N)NC(C)=O)C(N)=O)cc1 [Ac--RGD(O--methyl-Tyr)--NH2, acetyl-Arg-Gly-Asp-(O-methyltyrosine)-amide] (Ac-RGDY(Me)-NH2) | 78% | 100% | 20 µM | 20 µM | % Inhibition at 1 mg/kg ([2]; rat, i.v. infusion): 86%

Now from value to compound, other results behind:

Row | inhibition at 100 µM (washed human platelets) | inhibition at 100 µM ([1]; peptide 10^-4 M) | IC50 (washed human platelets) | IC50 ([1]; read-out: IC50) | Compound | also measured
13 | 55% | 23% |  |  | N=C(N)NCCC[C@H](NC(=O)CN)C(=O)NCC(=O)N[C@@H](CC(=O)O)C(=O)N[C@@H](CO)C(=O)N1CCC[C@H]1C(N)=O [GRGDSP--NH2, reference compound] | 
14 |  | 100% |  | 10 µM | COc1ccc(CC(NC(=O)[C@H](CC(=O)O)NC(=O)CNC(=O)[C@@H](N)CCCNC(=N)N)C(N)=O)c2ccccc12 (stereo partly drawn) [RGD(4-methoxy-1-naphthyl-Ala)--NH2, Arg-Gly-Asp-(4-methoxy-1-naphthylalanine)-amide] | 
15 | 79% | 100% | 20 µM | 30 µM | COc1ccc(C[C@H](NC(=O)[C@H](CC(=O)O)NC(=O)CNC(=O)[C@@H](N)CCCNC(=N)N)C(N)=O)cc1 [RGD(O--methyl-Tyr)--NH2, Arg-Gly-Asp-(O-methyltyrosine)-amide] (H-RGDY(Me)-NH2) | 
16 | 77% | 100% |  |  | N=C(N)NCCC[C@H](N)C(=O)NCC(=O)N[C@@H](CC(=O)O)C(=O)N[C@@H](Cc1ccccc1)C(N)=O [RGDF--NH2, reference compound] (H-RGDF-NH2) | 
